{"source": "patent US9707239B2", "about": "“Compounds that modulate oxidative stress” (vTv Therapeutics LLC, priority 2011, dated 2017)", "type_in_all_cases": "cell-based, human", "key": {"ATF4": {"system": "ATF4", "experiment": "mRNA expression (Quantigene Plex) in NHLF cells: ATF4", "details": "Table 5, 6 h, mRNA normalized to GAPDH, above DMSO treated cells", "protocol": "(§1) Secondary growth of NHLF cells were used for all assays. Cell were thawed and then placed into culture in T225 flasks. The cells were grown to 80% confluency and harvested by washing once with HEPES buffered saline solution and then trypsinizing. Equal numbers (7×10^3 cells per well) of NHLF cells were plated in 96 well tissue culture plates (Corning). Cells were incubated overnight in FGM-2 medium prior to exposure to compound. Cells were treated with either DMSO or a compound as described below for 6 h. Preparation of cell lysates was carried out according to instructions using the Quantigene Reagent system 2.0 protocol (Panomics). mRNA induction was detected from cell lysate using the Quantigene Plex 2.0 Assay Kit (Panomics) on the Luminex platform (BIO-RAD). Expression of GAPDH mRNA was used as the internal control for the Quantigen Plex 2.0 Assay. The data in Tables 5 and 6 represents the fold change of target mRNA expression, normalized to control values, above DMSO treated cells."}, "Nrf2": {"system": "Nrf2", "experiment": "HMOX1 mRNA induction after Nrf2 siRNA silencing", "details": "NHLF cells, 50 nM siRNA 48 hours, FIG. 5", "protocol": "Small interfering RNA targeting Nrf-2 (cat# SI03246614) or KEAP-1 (cat# SI03246439) were obtained from Qiagen at 20 nmol/tube. Negative control siRNA (cat#1027280) was also obtained from Qiagen. Lyophilized siRNA in each tube was resuspended with 1 ml of the provided siRNA Suspension Buffer to make a stock solution of 20 μM and tubes were heated at 90° C. for one minute and then at 37° C. for one hour prior to initial use.\nNormal human lung fibroblasts were plated at 5000 cells/well in 96-well plates and allowed to attach. Prior to experiments, well s containing the cells were refreshed with 30 μl of complete growth medium. For each siRNA type, a 4× concentration (200 nM) of siRNA was prepared by adding 11 μl of siRNA stock into 1.1 ml of serum-free medium containing 9 μl/ml of SILENTFECT Lipid Reagent (BioRad, cat#170-3361). This solution was incubated at room temperature for 20 minutes prior to adding 10 μl into each well for a final concentration of 50 nM siRNA. Cells were incubated with siRNA for 48 hours, after which they were treated with compound for either 5 hours (QuantiGene RNA assay) or 15 hours (protein immunofluorescence assay).\nThe predicted response profile is that silencing of Nrf2 should reduce the amount of HMOX1 induction by Compound 13 and other HMOX1 inducers that are electrophiles or reactive compounds. To that end, Compound 13 and other tool compounds were tested in cells that were treated with siRNA directed to Nrf2. Following gene silencing with specific siRNA or control siRNA, the ability of tool compounds to induce HMOX1 mRNA was determined."}, "HMOX1 [1]": {"system": "HMOX1", "experiment": "mRNA expression (Quantigene Plex) in NHLF cells: HMOX1", "details": "Table 5, 6 h, mRNA normalized to GAPDH, above DMSO treated cells", "protocol": "as §1"}, "ICAM": {"system": "ICAM", "experiment": "mRNA expression (Quantigene Plex) in NHLF cells: ICAM", "details": "Table 5, 6 h, mRNA normalized to GAPDH, above DMSO treated cells", "protocol": "as §1"}, "HSPA6": {"system": "HSPA6", "experiment": "mRNA expression (Quantigene Plex) in NHLF cells: HSPA6", "details": "Table 5, 6 h, mRNA normalized to GAPDH, above DMSO treated cells", "protocol": "as §1"}, "HMOX1 [2]": {"system": "HMOX1", "experiment": "Effect of NAC on compound induction of HMOX gene expression", "details": "NHLF cells pretreated with 5 mM NAC 1 hr, compound 6 h, FIG. 4", "protocol": "NHLF cells were grown to 80% confluency and harvested by washing once with HEPES and then trypsinizing. Equal numbers (7×10^4 cells per well) of NHLF cells were plated in 96 well tissue culture (Corning) plates. Cells were incubated overnight in FGM-2 medium prior to exposure to compound. Cells were pretreated with 5 mM N-acetyl cysteine for 1 hr. Cells were treated with either DMSO or compound for 6 h. Preparation of cell lysates was carried out according to Quantigene Reagent system 2.0 protocol (Panomics). Heme oxygenase mRNA induction was detected from cell lysate using the Quantigene Plex 2.0 Assay Kit (Panomics) on the Luminex platform (BIO-RAD). Expression of GAPDH mRNA was used as the internal control for the Quantigen Plex 2.0 Assay. Heme oxygenase data represents the fold change, normalized to control values, above DMSO treated cells.\nA further test of the hypothesis that Compound 13 induces HMOX1 with minimal alteration of cellular redox levels or chemical reactivity was carried out by treating cells with N-acetyl cysteine (NAC). This compound acts to restore cellular glutathione levels and thus prevent oxidative stress. The degree to which NAC can suppress HMOX1 induction is an indicator of the amount of chemical reactivity or ROS stress that a compound is imposing on the cell and thus activating phase II gene transcription. […] Coupled with the data shown in FIG. 3, it is concluded that Compound 13 induces HMOX1 with minimal elevation of ROS or NAC-sensitive chemical reactivity."}}, "note": "Entries after “also recorded” stand apart in the source; their conditions may differ."}
{"smiles": "O=C(Nc1ccc2cn[nH]c2c1)c1ccc2[nH]c(Nc3nc4ccccc4s3)nc2c1", "note": "[Compound 13, 2-(Benzothiazol-2-ylamino)-1H-benzoimidazole-5-carboxylic acid (1H-indazol-6-yl)-amide]", "values": [{"measurement": "ATF4 (fold induction)", "setting": "ATF4", "result": 1.2, "unit": "fold induction"}, {"measurement": "HMOX1 mRNA induction with siRNA directed to Nrf2", "setting": "Nrf2", "result": "affected by the presence of the siRNA for Nrf2; also recorded: requires Nrf2 for full induction of HMOX1 mRNA"}, {"measurement": "HMOX1 (fold induction)", "setting": "HMOX1 [1]", "result": 25, "unit": "fold induction"}, {"measurement": "ICAM (fold induction)", "setting": "ICAM", "result": "nor did it induce"}, {"measurement": "ICAM (fold induction)", "setting": "ICAM; listed as #13", "result": 1.1, "unit": "fold induction"}, {"measurement": "HSPA6 (fold induction)", "setting": "HSPA6", "result": "did not induce"}, {"measurement": "HSPA6 (fold induction)", "setting": "HSPA6; listed as #13", "result": 0.96, "unit": "fold induction"}, {"measurement": "effect of N-acetyl cysteine (NAC) on HMOX1 induction", "setting": "HMOX1 [2]", "result": "induces the greatest amount of HMOX1 with the least impact by NAC; also recorded: still induces HMOX1 expression in the presence of NAC"}]}
